Patent US8652087B2, “Method for use of microdialysis” (priority 2009, dated 2014)

What was measured:
[1] = at 37° C.; cited from earlier work
red blood cells = settings: in the first 1-2 minutes; cited from earlier work
[2] = Charcoal MTZ adsorption kinetics study (PMD and direct donor sampling); format: physicochemical; settings: 37° C., first minute after charcoal addition
Description: A charcoal suspension was prepared at least 24 hours before use by adding 0.6 g of activated charcoal (Sigma Chemical, St. Louis, Mo.) to 100 mL of 0.6% Dextran Solution (Birkmeier et al., 1995). A donor solution of MTZ in 0.005N NaOH was made with an initial concentration of C0=200 μg/mL and volume of 48 mL. A probe was immersed in the solution, and PMD was started before adding the charcoal using a dialysate that initially contained no MTZ. Samples were collected every 10 seconds, using a resting time of 8 seconds, a flow rate of 100 μL/min, and a sample volume of 5 μL. After collecting at least six samples, 2 mL of the charcoal suspension was quickly (in 1-2 seconds) mixed into 48 mL of stirred MTZ solution, giving a final volume of 50 mL. […] Samples were collected during 10 second intervals, and the start times for the sampling intervals were 0, 0.2, 0.4, 0.7, 1, 2, 5, 10 and 30 minutes. The flow rate was 100 μL/min, the rest time was 8 seconds, and the sample volume was 5 μL. The samples were immediately analyzed using HPLC. […] Direct sampling of the donor was also done at various times for comparison with the PMD data. The direct donor samples were immediately filtered to remove the activated charcoal and analyzed using HPLC.

[3] = Benzocaine release from self-emulsifying microemulsion systems by PMD; format: physicochemical; settings: occupying the probe window for one minute; Tween 20:Cremophor EL:peppermint oil systems diluted 1:25 in water
Description: The medium outside the probe served as the receiver in this case. Before the PMD experiments, various anhydrous liquid systems were made, to be used to release benzocaine. In all cases, two surfactants, Tween 20 and Cremophor EL (both from Sigma Chemical, St. Louis, Mo.), were blended in a 2:1 (weight:weight) ratio. Various amounts of peppermint oil were added (from 0 to 30% oil by weight) to make the anhydrous systems. Benzocaine (50 mg per gram of peppermint oil) was subsequently added to each system, and stirring was done until all benzocaine was dissolved and distributed within the oil and surfactant blend. These anhydrous systems were then diluted 1:25 in water, and used as the dialysate. A probe was immersed in 50 mL of water (which served as the receiver) that initially contained no drug. Since benzocaine is a weak base, various pH values were used, but the pH of the water and dialysate were the same in all cases. The dialysate (containing the microemulsions and acting as the donor) was pumped into the probe window, allowed to remain at rest for various resting times (5-100 seconds), pumped out and collected, and subsequently assayed for benzocaine content to determine the fraction of benzocaine lost as a function of the total time in the probe window. The flow rate Q was 100 μL/min and the sample volume was 5 μL.

Structure (SMILES)	diffusion coefficient (value of the reference drug) [1]	decrease of buffer concentration by uptake into red blood cells (red blood cells) [%]	decline of concentration during the first minute [2] [%]	benzocaine lost from microemulsion dialysate [3] [%]
CC(=O)/N=c1/sc(S(N)(=O)=O)nn1C [MTZ, methazolamide]	4×10^−6 cm^2/s	50	~50	–
CCOC(=O)c1ccc(N)cc1 [benzocaine]	–	–	–	≤ 90
